Positions count from the first letter of the chain named. Entries after “also recorded” stand apart in the source; their conditions may differ. Where two headings read alike, the source gives them in different places.
Assays:
[1] = molecular target: T1, UGT2B7^268Tyr (Homo sapiens, UniProt P16662); settings: rUGT2B7^268Tyr microsomes; for inhibition of HM3G formation: 100 μM cannabinoid, 400 μM hydromorphone, 2% BSA, vs vehicle control; for IC50: read-out: IC50,u, IC50 corrected for nonspecific binding (fu,inc from refs 32,33; 11-OH-THC fu,inc as surrogate for 7-OH-CBD), mean ± SD
T1 sequence (P16662 24-529): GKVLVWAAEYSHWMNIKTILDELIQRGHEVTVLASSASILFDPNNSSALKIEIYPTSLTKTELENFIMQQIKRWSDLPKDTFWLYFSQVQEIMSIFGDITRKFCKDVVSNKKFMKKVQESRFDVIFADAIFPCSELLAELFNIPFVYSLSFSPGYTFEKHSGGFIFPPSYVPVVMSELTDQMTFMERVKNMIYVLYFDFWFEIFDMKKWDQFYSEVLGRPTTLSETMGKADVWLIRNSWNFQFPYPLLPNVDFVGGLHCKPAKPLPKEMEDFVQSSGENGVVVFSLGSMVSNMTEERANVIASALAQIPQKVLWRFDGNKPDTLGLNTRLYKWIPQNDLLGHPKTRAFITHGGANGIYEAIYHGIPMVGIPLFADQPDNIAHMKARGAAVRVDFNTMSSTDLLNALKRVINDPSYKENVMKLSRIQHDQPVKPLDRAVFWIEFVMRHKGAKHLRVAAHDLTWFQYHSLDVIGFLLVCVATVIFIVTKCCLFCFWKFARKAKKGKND

[2] = molecular target: T2, UGT2B7^268His (Homo sapiens, UniProt P16662, Y268H); assay: Inhibition of hydromorphone glucuronidation (HM3G formation) by cannabinoids in rUGT2B7^268His microsomes; format: biochemical; settings: for inhibition of HM3G formation: 100 μM cannabinoid, 400 μM hydromorphone, 2% BSA, vs vehicle control; for IC50: IC50 corrected for nonspecific binding (fu,inc from refs 32,33; 11-OH-THC fu,inc as surrogate for 7-OH-CBD and 7-COOH-CBD), mean ± SD
T2 construct: expressed in transfected cells; microsomal membrane fraction
T2 sequence (P16662 24-529 Y268H): T1 sequence (P16662 24-529) with Y245H

[3] = Estimated maximum unbound hepatic inlet plasma concentrations of cannabinoids after oral or inhaled THC or CBD; parameters: species or system human; settings: doses and Cmax from Bansal et al., 2022, read-out: Cmax,hepatic inlet,u
Source text: [I]h is the inhibitor concentration in the liver and is defined as follows:(7) [I]h=fu,p×(Cmax+Fa×Fg×Ka×Dose/Qh×Rb) where fu,p is the unbound fraction of inhibitor in plasma, and Cmax is the maximal total (free and bound) inhibitor concentration in the plasma.

[4] = molecular target: T3, UGT2B7 in pooled human liver microsomes (HLM) (Homo sapiens, UniProt P16662); assay: Inhibition of UGT2B7-mediated hydromorphone glucuronidation by cannabinoids in pooled HLM (screening, IC50, Ki, inhibition type); format: biochemical; settings: for inhibition of HM3G formation (in words) / inhibition of HM3G formation: 100 μM cannabinoid, pooled HLM; for inhibition of HM3G formation: 400 μM hydromorphone, 2% BSA, vs vehicle control; for IC50: IC50 corrected for nonspecific binding (fu,inc from refs 32,33; 11-OH-THC fu,inc as surrogate for 7-OH-CBD and 7-COOH-CBD), mean ± SD; for Ki: Ki corrected for nonspecific binding (fu,inc from refs 32,33; 11-OH-THC fu,inc as surrogate for 7-OH-CBD), competitive model, mixed model for 11-OH-THC, read-out: Ki,u; for Inhibition Type: type of reversible inhibition of UGT2B7-mediated hydromorphone metabolism in HLM, Lineweaver-Burk replots
T3 sequence (P16662 24-529): T1 sequence (P16662 24-529)

[5] = system: UGT2B7^268Tyr; settings: from IC50,u values in rUGT2B7^268Tyr vs rUGT2B7^268His microsomes
[6] = system: UGT2B7-mediated hydromorphone metabolism; assay: Static mechanistic IVIVE modeling of cannabinoid-hydromorphone drug interaction (AUCR); parameters: species or system human; settings: after inhalation and oral consumption of THC and CBD
[7] = ref Bansal et al., 2022, cited from earlier work
[8] = system: UGT1A9; parameters: method as in Bansal et al., 2023; settings: enzyme kinetic (HLM); ref Bansal et al., 2023; cited from earlier work
[9] = system: CYP2C9; parameters: method as in Bansal et al., 2023; settings: enzyme kinetic (HLM); ref Bansal et al., 2023; cited from earlier work
[10] = cannabidiol PBPK input; ref ChEMBL database (https://www.ebi.ac.uk/); cited from earlier work
[11] = system: CYP2C8; parameters: method as in Bansal et al., 2023; settings: enzyme kinetic (HLM); ref Bansal et al., 2023; cited from earlier work
[12] = system: CYP2C19; parameters: method as in Bansal et al., 2023; settings: enzyme kinetic (HLM); ref Bansal et al., 2023; cited from earlier work
[13] = system: CYP2C19; parameters: method as in Bansal et al., 2020; settings: ref Bansal et al., 2020, read-out: KI,u (binding-corrected half-maximal inactivation concentration); cited from earlier work
[14] = system: CYP3A4; parameters: method as in Bansal et al., 2023; settings: enzyme kinetic (HLM); ref Bansal et al., 2023; cited from earlier work
[15] = system: CYP2B6; parameters: method as in Bansal et al., 2023; settings: enzyme kinetic (HLM); ref Bansal et al., 2023; cited from earlier work
[16] = system: CYP1A2; parameters: method as in Bansal et al., 2023; settings: enzyme kinetic (HLM); ref Bansal et al., 2023; cited from earlier work
[17] = molecular target: T1, UGT2B7^268Tyr; assay: in vitro
[18] = set value for static model, cited from earlier work; for ka (first-order absorption rate constant): ref Cox et al., 2019
[19] = molecular target: T4, UGT2B7 (Homo sapiens, UniProt P16662); assay: Inhibition of UGT2B7-mediated hydromorphone glucuronidation by cannabinoids in pooled HLM (screening, IC50, Ki, inhibition type); format: biochemical; settings: human, pooled human liver microsomes
T4 sequence (P16662 24-529): T1 sequence (P16662 24-529)

[20] = system: CYP3A; parameters: method as in Bansal et al., 2020; settings: ref Bansal et al., 2020, read-out: KI,u (binding-corrected half-maximal inactivation concentration); cited from earlier work
[21] = system: CYP2D6; parameters: method as in Bansal et al., 2023; settings: enzyme kinetic (HLM); ref Bansal et al., 2023; cited from earlier work
[22] = system: CYP1A2; parameters: method as in Bansal et al., 2020; settings: ref Bansal et al., 2020, read-out: KI,u (binding-corrected half-maximal inactivation concentration); cited from earlier work
[23] = system: UGT2B7; parameters: method as in Bansal et al., 2023; settings: enzyme kinetic (HLM); ref Bansal et al., 2023; cited from earlier work
[24] = first-order absorption model, fasted
[25] = probe hydromorphone 400 μM (HM3G formation)

Molecule: CCCCCc1cc(O)c2c(c1)OC(C)(C)[C@@H]1CCC(C(=O)O)=C[C@@H]21 [11-COOH-THC, 11-nor-9-carboxy (COOH)-Δ^9-THC]
- inhibition of HM3G formation [1]: 27%
- inhibition of HM3G formation [2]: 49%
- Cmax ([3]; THC 20 mg oral): 190 nM
- Cmax ([3]; THC 25 mg inhalation): 70 nM
- Cmax ([3]; THC 70 mg inhalation): 180 nM
- Cmax ([3]; THC 100 mg inhalation): 260 nM
- Cmax ([3]; THC 130 mg oral): 1220 nM
- Cmax ([3]; THC 160 mg oral): 1500 nM
- inhibition of HM3G formation (in words) [4]: only minimal or moderate inhibition; also recorded: did not show appreciable inhibition

Molecule: 11-hydroxy (OH)-Δ^9-THC [11-OH-THC]
- inhibitory effect against UGT2B7∗2, fold lower than with UGT2B7∗1 [5]: 2- to 3 fold
- inhibition of HM3G formation [1]: 87%
- IC50 [1]: 840 ± 190 nM
- increase in hydromorphone exposure (static modeling) [6]: > 1.25 fold
- inhibition of HM3G formation [2]: 98%
- IC50 [2]: 360 ± 30 nM
- Cmax ([3]; THC 20 mg oral): 20 nM
- Cmax ([3]; THC 25 mg inhalation): 10 nM
- Cmax ([3]; THC 70 mg inhalation): 30 nM
- Cmax ([3]; THC 100 mg inhalation): 50 nM
- Cmax ([3]; THC 130 mg oral): 100 nM
- Cmax ([3]; THC 160 mg oral): 120 nM
- inhibition of HM3G formation [4]: 96%
- α value (mixed inhibition model) ([4]; HLM, GraphPad mixed inhibition model): > 1
- IC50 ([4]; HLM): 1080 ± 140 nM
- Ki ([4]; HLM): 1010 ± 180 nM
- Inhibition Type [4]: mixed type inhibition

Molecule: C=C(C)[C@@H]1CCC(CO)=C[C@H]1c1c(O)cc(CCCCC)cc1O [7-OH-CBD, 7-hydroxycannabidiol]
- inhibition of HM3G formation [1]: 77%
- IC50 [1]: 1260 ± 930 nM
- increase in hydromorphone exposure (static modeling) [6]: > 1.25 fold
- inhibition of HM3G formation [2]: 82%
- IC50 [2]: 1390 ± 770 nM
- Cmax ([3]; CBD 70 mg oral): 30 nM
- Cmax ([3]; CBD 700 mg oral): 340 nM
- Cmax ([3]; CBD 2000 mg oral): 980 nM
- inhibition of HM3G formation [4]: 87%
- IC50 ([4]; HLM): 950 ± 250 nM
- Ki ([4]; HLM): 740 ± 120 nM
- Inhibition Type [4]: Competitive

Molecule: C=C(C)[C@@H]1CCC(C)=C[C@H]1c1c(O)cc(CCCCC)cc1O [CBD, cannabidiol]
- Lag time ([7]; fasted): 1.5^1 hr
- fa [7, 24]: 0.25^1
- ka [7, 24]: 0.55^1 1/hr
- Fraction unbound in plasma [7]: 0.013
- Qgut [7]: 10.24 L/h
- fugut [7]: 0.013
- CLint, UGT: UGT1A9 [8]: 541 µL/min/mg of protein
- CLint, CYP: CYP2C9 [9]: 93 µL/min/mg of protein
- Log P [10]: 6.33
- pKa [10]: 9.13
- CLint, CYP: CYP2C8 [11]: 51 µL/min/mg of protein
- CLint, CYP: CYP2C19 [12]: 193 µL/min/mg of protein
- KI (inactivation) [13]: 73 nM
- CLint, CYP: CYP3A4 [14]: 220 µL/min/mg of protein
- increase in hydromorphone exposure (static modeling) [6]: > 1.25 fold
- CLint, CYP: CYP2B6 [15]: 46 µL/min/mg of protein
- CLint, CYP: CYP1A2 [16]: 56 µL/min/mg of protein
- inhibition at 100 μM [17]: 96%
- ka (first-order absorption rate constant) [18]: 0.02
- IC50 [19, 25]: 140 ± 40 nM
- inhibition at 100 μM [19, 25]: 83%
- Ki ([19]; HLM, Ki corrected for nonspecific binding (fu,inc from refs 32,33; 11-OH-THC fu,inc as surrogate for 7-OH-CBD), competitive model, mixed model for 11-OH-THC, read-out: Ki,u): 68 ± 3 nM
- Inhibition Type [4]: Competitive
- KI (inactivation) [20]: 106 nM
- CLint, CYP: CYP2D6 [21]: 38 µL/min/mg of protein
- KI (inactivation) [22]: 20 nM
- CLint, UGT: UGT2B7 [23]: 2162 µL/min/mg of protein

Molecule: CCCCCc1cc(O)c2c(c1)OC(C)(C)[C@@H]1CCC(C)=C[C@@H]21 [THC, Δ^9-tetrahydrocannabinol, reference compound]
- inhibition of HM3G formation [1]: 45%
- inhibitory effect on hydromorphone metabolism for the UGT2B7∗2 variant (in words) [1]: little to no inhibitory effect
- increase in hydromorphone exposure (static modeling) [6]: > 1.25 fold
- inhibition of HM3G formation [2]: 67%
- IC50 [2]: 2920 ± 260 nM
- Cmax ([3]; THC 20 mg oral): 30 nM
- Cmax ([3]; THC 25 mg inhalation): 250 nM
- Cmax ([3]; THC 70 mg inhalation): 690 nM
- Cmax ([3]; THC 100 mg inhalation): 990 nM
- Cmax ([3]; THC 130 mg oral): 200 nM
- Cmax ([3]; THC 160 mg oral): 240 nM
- ka (first-order absorption rate constant) [18]: 0.02
- BP (blood to plasma ratio) ([18]; ref Schwilke et al., 2009): 0.4
- inhibition of HM3G formation (in words) [4]: only minimal or moderate inhibition
- IC50 ([4]; HLM): 2500 ± 580 nM
- Ki ([4]; HLM): 170 ± 20 nM
- Inhibition Type [4]: Competitive

Molecule: C=C(C)[C@@H]1CCC(C(=O)O)=C[C@H]1c1c(O)cc(CCCCC)cc1O [7-COOH-CBD]
- inhibition of HM3G formation [1]: 41%
- inhibitory effect on hydromorphone metabolism for the UGT2B7∗2 variant (in words) [1]: little to no inhibitory effect
- inhibition of HM3G formation [2]: 60%
- IC50 [2]: 5540 ± 3670 nM
- inhibition of HM3G formation (in words) [4]: only minimal or moderate inhibition
- IC50 ([4]; HLM): > 10000 nM
